In the NIST ThermoML archive (doi:10.1016/j.jct.2011.05.033):
Values joined by “and” are separate entries in the source; they are usually repeats but may differ in a detail not shown here. Equal entries are not always repeated.

Assays:
[1] = xn = mol fraction of the nth substance listed; settings: 298.15 K, 101 kPa, Liquid, Vibrating tube method
[2] = excess molar enthalpy (molar enthalpy of mixing); xn = mol fraction of the nth substance listed; settings: 298.15 K, 101 kPa, Liquid, Isothermal Titration Calorimeter

CCCCCCCCn1cc[n+](C)c1.O=S(=O)([N-]S(=O)(=O)C(F)(F)F)C(F)(F)F + CO
Settings | excess molar enthalpy [kcal/mol] | mass density
[1], x1 = 0.0001 | – | 791.05 kg/m3
[1], x1 = 0.0218 | – | 882.47 kg/m3
[1], x1 = 0.0599 | – | 986.86 kg/m3
[1], x1 = 0.0837 | – | 1031.65 kg/m3
[1], x1 = 0.1926 | – | 1153.62 kg/m3
[1], x1 = 0.2708 | – | 1198.9 kg/m3
[1], x1 = 0.3019 | – | 1213.08 kg/m3
[1], x1 = 0.5004 | – | 1267.25 kg/m3
[1], x1 = 0.8201 | – | 1308.01 kg/m3
[1], x1 = 0.8355 | – | 1308.78 kg/m3
[1], x1 = 0.989 | – | 1319.5 kg/m3
[1], x1 = 1 | – | 1320.55 kg/m3 and 1320.38 kg/m3
[2], x2 = 0.0153 | 0.0206 | –
[2], x2 = 0.0302 | 0.0402 | –
[2], x2 = 0.0446 | 0.0586 | –
[2], x2 = 0.0586 | 0.076 | –
[2], x2 = 0.0721 | 0.0923 | –
[2], x2 = 0.0853 | 0.108 | –
[2], x2 = 0.0982 | 0.122 | –
[2], x2 = 0.1106 | 0.136 | –
[2], x2 = 0.1228 | 0.149 | –
[2], x2 = 0.1346 | 0.162 | –
[2], x2 = 0.1461 | 0.173 | –
[2], x2 = 0.1573 | 0.184 | –
[2], x2 = 0.1682 | 0.195 | –
[2], x2 = 0.1788 | 0.205 | –
[2], x2 = 0.1892 | 0.214 | –

CCCCCC[n+]1ccn(C)c1.O=S(=O)([N-]S(=O)(=O)C(F)(F)F)C(F)(F)F + CO
Settings | excess molar enthalpy [kcal/mol] | mass density
[1], x1 = 0.0001 | – | 792.92 kg/m3
[1], x1 = 0.0002 | – | 792.66 kg/m3
[1], x1 = 0.0003 | – | 792.92 kg/m3
[1], x1 = 0.0711 | – | 1017.33 kg/m3
[1], x1 = 0.0868 | – | 1047.67 kg/m3
[1], x1 = 0.1772 | – | 1163.23 kg/m3
[1], x1 = 0.2176 | – | 1195.97 kg/m3
[1], x1 = 0.2695 | – | 1228.24 kg/m3
[1], x1 = 0.4991 | – | 1308.41 kg/m3
[1], x1 = 0.5488 | – | 1318.7 kg/m3
[1], x1 = 0.5851 | – | 1325.38 kg/m3
[1], x1 = 1 | – | 1371.91 kg/m3 and 1371.79 kg/m3
[2], x2 = 0.0147 | 0.0257 | –
[2], x2 = 0.029 | 0.0503 | –
[2], x2 = 0.0429 | 0.0738 | –
[2], x2 = 0.0564 | 0.0962 | –
[2], x2 = 0.0695 | 0.118 | –
[2], x2 = 0.0823 | 0.138 | –
[2], x2 = 0.0947 | 0.158 | –
[2], x2 = 0.1068 | 0.176 | –
[2], x2 = 0.1186 | 0.194 | –
[2], x2 = 0.13 | 0.211 | –
[2], x2 = 0.1412 | 0.228 | –
[2], x2 = 0.1521 | 0.243 | –
[2], x2 = 0.1627 | 0.258 | –
[2], x2 = 0.1731 | 0.272 | –
[2], x2 = 0.1832 | 0.286 | –

CCCC[n+]1ccn(C)c1.O=S(=O)([N-]S(=O)(=O)C(F)(F)F)C(F)(F)F + CO
Settings | excess molar enthalpy [kcal/mol] | mass density [kg/m3]
[1], x1 = 0.0844 | – | 1054.48
[1], x1 = 0.1155 | – | 1109.91
[1], x1 = 0.1594 | – | 1168.72
[1], x1 = 0.1722 | – | 1182.69
[1], x1 = 0.264 | – | 1259.96
[1], x1 = 0.6327 | – | 1388.71
[1], x1 = 0.8245 | – | 1418.09
[1], x1 = 1 | – | 1436.29
[2], x2 = 0.0131 | 0.0218 | –
[2], x2 = 0.0258 | 0.0423 | –
[2], x2 = 0.0383 | 0.0617 | –
[2], x2 = 0.0504 | 0.08 | –
[2], x2 = 0.0622 | 0.0973 | –
[2], x2 = 0.0737 | 0.114 | –
[2], x2 = 0.0849 | 0.129 | –
[2], x2 = 0.0959 | 0.144 | –
[2], x2 = 0.1066 | 0.157 | –
[2], x2 = 0.1171 | 0.171 | –
[2], x2 = 0.1273 | 0.183 | –
[2], x2 = 0.1373 | 0.195 | –
[2], x2 = 0.147 | 0.206 | –
[2], x2 = 0.1566 | 0.216 | –
[2], x2 = 0.1659 | 0.226 | –

CCn1cc[n+](C)c1.O=S(=O)([N-]S(=O)(=O)C(F)(F)F)C(F)(F)F + CO
Settings | excess molar enthalpy [kcal/mol] | mass density
[1], x1 = 0.0001 | – | 792.63 kg/m3
[1], x1 = 0.0732 | – | 1040.6 kg/m3
[1], x1 = 0.1082 | – | 1115.5 kg/m3
[1], x1 = 0.1385 | – | 1165.23 kg/m3
[1], x1 = 0.2145 | – | 1258.12 kg/m3
[1], x1 = 0.2485 | – | 1289.7 kg/m3
[1], x1 = 0.2968 | – | 1325.28 kg/m3
[1], x1 = 0.3388 | – | 1351.25 kg/m3
[1], x1 = 0.6002 | – | 1451 kg/m3
[1], x1 = 0.6355 | – | 1459.63 kg/m3
[1], x1 = 0.7925 | – | 1487.15 kg/m3
[1], x1 = 0.837 | – | 1497.28 kg/m3
[1], x1 = 1 | – | 1518.63 kg/m3 and 1518.58 kg/m3
[2], x2 = 0.0118 | 0.0158 | –
[2], x2 = 0.0233 | 0.0311 | –
[2], x2 = 0.0346 | 0.0454 | –
[2], x2 = 0.0456 | 0.0593 | –
[2], x2 = 0.0563 | 0.0722 | –
[2], x2 = 0.0668 | 0.0848 | –
[2], x2 = 0.0771 | 0.0966 | –
[2], x2 = 0.0872 | 0.108 | –
[2], x2 = 0.097 | 0.119 | –
[2], x2 = 0.1067 | 0.129 | –
[2], x2 = 0.1161 | 0.139 | –
[2], x2 = 0.1253 | 0.148 | –
[2], x2 = 0.1343 | 0.157 | –
[2], x2 = 0.1432 | 0.165 | –
[2], x2 = 0.1519 | 0.173 | –

CO [methanol] + CCCCCCCCCCn1cc[n+](C)c1.O=S(=O)([N-]S(=O)(=O)C(F)(F)F)C(F)(F)F
Settings | mass density [kg/m3]
[1], x2 = 0 | 793.17

CO [methanol] + CCCCCCCCn1cc[n+](C)c1.O=S(=O)([N-]S(=O)(=O)C(F)(F)F)C(F)(F)F
Settings | mass density [kg/m3]
[1], x2 = 0 | 792.64

CO [methanol] + CCCCCC[n+]1ccn(C)c1.O=S(=O)([N-]S(=O)(=O)C(F)(F)F)C(F)(F)F
Settings | mass density [kg/m3]
[1], x2 = 0 | 792.66

CO [methanol] + CCCC[n+]1ccn(C)c1.O=S(=O)([N-]S(=O)(=O)C(F)(F)F)C(F)(F)F
Settings | mass density [kg/m3]
[1], x2 = 0 | 792.92

CO [methanol] + CCn1cc[n+](C)c1.O=S(=O)([N-]S(=O)(=O)C(F)(F)F)C(F)(F)F
Settings | mass density [kg/m3]
[1], x2 = 0 | 794.62
